Assay results reported in US9642922B2, “Caspase-triggered nano-aggregation probes and methods of use” (The Board of Trustees of the Leland Stanford Junior …, priority 2013, dated 2017).
Numbered stars: 1 amine (or outer) side, 2 acyl side, 3 side chain; on linkers, the order of the positions; unused ones are H or OH. Square brackets hold non-standard residues; d marks the D form. Peptide text beside a SMILES is read from it. * marks the point of attachment. DOTA = O=C(O)CN1CCN(CC(=O)O)CCN(CC(=O)*)CCN(CC(=O)O)CC1; X1 = O=C(C1CSC(c2nc3ccc(N[*:1])cc3s2)=N1)[*:2]; X2 = N#Cc1ccc2cc(OCCCN*)ccc2n1; SEt = CCS*

Key:
[1] = target: T1, recombinant human caspase-7 (Homo sapiens, UniProt P55210); assay: HPLC enzyme specificity assay of C-SNAF, caspase-7; format: biochemical; conditions: 25 μM probe, 0.735 μg/ml enzyme
T1 construct: purchased Calbiochem; host or cells: E. coli
T1 sequence (P55210 24-198 limits assumed): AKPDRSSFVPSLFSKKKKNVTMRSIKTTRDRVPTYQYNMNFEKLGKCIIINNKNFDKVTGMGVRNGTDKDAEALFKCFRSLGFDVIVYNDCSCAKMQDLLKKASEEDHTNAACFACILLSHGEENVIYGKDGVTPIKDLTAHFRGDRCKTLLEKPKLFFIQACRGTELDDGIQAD
T1 sequence (P55210 207-303 limits assumed): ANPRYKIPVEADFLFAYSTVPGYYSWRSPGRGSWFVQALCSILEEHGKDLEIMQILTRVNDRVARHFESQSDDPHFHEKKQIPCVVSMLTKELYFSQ
Description: (§1) The specificity of C-SNAF towards other representative cysteine proteases such as caspase-7, caspase-9, cathepsin B, and legumain was examined.
(§2) Caspase (human, recombinant from E. coli) assays were performed for caspase-3 (4.9×10^−3 U; 7.35×10^−4 mg, Sigma), −7 (18.3 U; 7.35×10^−4 mg, Calbiochem), and −9 (0.3 U; 7.35×10^−4 mg, Calbiochem). All caspase assays were conducted in caspase buffer with 50 mM HEPES, 100 mM NaCl, 1 mM EDTA, 10 mM TCEP, 10% glycerol, and 0.1% CHAPS at pH 7.4. Cathepsin B (human liver; 0.27 U; 7.35×10^−4 mg, Calbiochem) and Legumain (human, recombinant from mouse myeloma cell line; >250 pmol/min/μg; 7.35×10^−4 mg, R&D Systems) were conducted in reaction buffer with 50 mM sodium acetate, 50 mM NaCl, 0.5 mM EDTA and 10 mM TCEP at pH 5.5. C-SNAF was diluted in the respective enzyme reaction buffer (25 μM, 1 mL) and remained at room temperature for 10 min, to which was then added the respective enzymes. Reactions were performed at 37° C., and monitored by HPLC hourly. The percentage conversion of the reaction was calculated based on the percentage of peak area of C-SNAF-cycl in the HPLC trace at 675 nm UV detection, which indicated the efficacy of enzyme cleavage of C-SNAF.

legumain = target: T2, legumain (Homo sapiens, UniProt Q99538); assay: HPLC enzyme specificity assay of C-SNAF, legumain; format: biochemical; conditions: 25 μM probe, 0.735 μg/ml enzyme, pH 5.5
T2 construct: purchased R&D Systems; host or cells: mouse myeloma cell line
T2 sequence (Q99538 18-323): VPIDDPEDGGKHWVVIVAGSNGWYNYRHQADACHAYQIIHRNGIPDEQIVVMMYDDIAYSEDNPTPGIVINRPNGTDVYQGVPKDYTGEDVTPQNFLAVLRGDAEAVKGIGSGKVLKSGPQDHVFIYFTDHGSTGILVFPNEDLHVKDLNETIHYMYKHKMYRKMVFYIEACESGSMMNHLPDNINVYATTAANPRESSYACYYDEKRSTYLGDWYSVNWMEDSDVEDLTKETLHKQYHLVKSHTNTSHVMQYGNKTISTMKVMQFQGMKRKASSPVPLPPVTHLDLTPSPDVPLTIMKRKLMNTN
Description: as §1, §2

apoptotic HeLa cells = assay: Epifluorescence microscopy of apoptotic HeLa cells labeled with probes; format: cell-based, human
Description: After removal of the medium, the cells were incubated with C-SNAF, L-ctrl, or D-ctrl at 2 μM for 24 h. Some cells were first incubated with caspase inhibitor (Z-VAD-fmk, 50 μM) for 30 min, followed by incubating with 2 μM C-SNAF for 24 h. The cells were carefully washed with PBS (1×) three times, and stained with Hoechst 33342 (2 μM) at 37° C. for 30 min. After rinses with PBS (1×) several times, the medium was replaced and the fluorescence images were acquired with DAPI and Cy5.5 filters. The images were processed using the standard CRi Nuance software, analyzed using Image J software package (NIH), and presented at the same intensity scale for comparison.
HeLa cells in #1.5 borosilicate 8-well chambered coverslips (Nunc) were either incubated with C-SNAF (2 μM) alone or co-incubated with DOX (1, 2, and 5 μM) and 2 μM C-SNAF, 2 μM C-SNAF together with caspase inhibitor (Z-VAD-fmk, 50 μM), or control probes D-ctrl and L-ctrl at 2 μM for 24 h. Then the medium was removed, the cells were carefully washed with PBS (1×) three times, and stained with nuclear binding probe Hoechst 33342 (2 μM) at 37° C. for 30 min. After several rinses with PBS (1×), the medium was replaced and the fluorescence images were acquired with DAPI and […] filters.

caspase-3/7 = assay: HPLC analysis of C-SNAF reaction in apoptotic cell lysates; format: biochemical, human; conditions: 5 μM, lysate of STS- and DOX-induced apoptotic HeLa or MDA-MB-231 cells
Description: To confirm the formation of the caspase-3/7-triggered intramolecular cyclization product C-SNAF-cycl in apoptotic cells, C-SNAF (5 μM) was incubated with both cell lysates and whole cells, and the products were analyzed by HPLC. […] However, more than 90% of C-SNAF was converted to C-SNAF-cycl in the lysate of STS- and DOX-induced apoptotic HeLa (FIG. 12A) or MDA-MB-231 cells, indicating the efficient intramolecular condensation initiated by caspase-3/7 in a complex cellular environment.
The culture medium was carefully removed and the cells were washed with cold 1×PBS. The cells were trypsinized to form cell pellets, and RIPA (RadioImmuno Precipitation Assay, sigma) buffer was added to cells using 100 μL of buffer per 4×10^6 cells. Then the cells were kept on ice for 0.5 h. The cell lysate was gathered, centrifuged at 14,000×g for 15 min at 4° C. The supernatant of the cell lysate was collected, and the caspase-3/7 activity in the lysate was determined by CASPASE-GLO® 3/7 assay. The cell lysate was diluted with caspase reaction buffer (2×, 1:1 diluted), and incubated with C-SNAF (5 μM) at 37° C. overnight and then injected into an HPLC system (Dionex) for analysis.

subcutaneous HeLa tumors = assay: In vivo fluorescence imaging of DOX-treated HeLa tumor-bearing mice; set-up: species or system mouse
Description: C-SNAF or either of the control probes (5 nmol) was administered intravenously to tumor-bearing mice and whole animal fluorescence was longitudinally monitored using a Maestro fluorescence imager.
To establish tumors in 6-week-old female nu/nu mice, 2×10^6 HeLa cells suspended in 50 μL of a 50% v/v mixture of Matrigel in supplemented DMEM (10% FBS, 1% penstrep) were injected subcutaneously in the shoulders of the mouse. Tumors were grown until a single aspect was 0.7 to 0.9 cm (approximately 10-15 days), and then treatment consisting of 8 mg/kg DOX or saline was initiated. Treatments were administered intravenously once every 4 d for a total of three times. Total mouse body weight and tumor size (width and length by caliper) was measured every other day. Tumor volumes were calculated assuming ellipsoid shape with the formula (l×w^2)/2.
Two days following the final treatment, 5 nmol probe in saline was injected intravenously and fluorescence imaging began immediately on a Maestro hyperspectral fluorescent imaging system (PerkinElmer, Mass., USA) using a 635±25 nm excitation filter and a 675 nm long-pass emission filter, with images acquired from 670 to 900 nm. Tissue autofluorescence and Cy5.5 fluorescence were deconvolved, and tumor fluorescence intensity was quantified by region of interest measurement using Nuance v.3.0.1.2 software (Perkin Elmer, Mass., USA).

viable HeLa cells = assay: Cell viability study (trypan blue); format: cell-based, human; conditions: 250 μM for 24 h
Description: About 2×10^5 HeLa cells in 1 mL DMEM medium were seeded onto 12-well plates. […] After 24 h incubation, the medium was removed, and the cells were trypsinized. The cell number was counted using trypan blue assay. The viability of cell with blank medium was set as 100%, and cells incubating with 1 or Dotarem were normalized to that in blank medium.

SMILES	selectivity of activation by caspase-7 [1]	activation by legumain (legumain)	cell labeling efficiency (apoptotic HeLa cells; DOX 1 μM) [%]	cell labeling efficiency (apoptotic HeLa cells; DOX 5 μM) [%]	enhancement in cell labeling efficiency (apoptotic HeLa cells; DOX 1 to 5 μM)	cell labeling efficiency (apoptotic HeLa cells; STS 0.5 μM) [%]	cell labeling efficiency (apoptotic HeLa cells; STS 2 μM) [%]	enhancement in cell labeling efficiency (apoptotic HeLa cells; STS 0.5 to 2 μM)	C-SNAF converted to C-SNAF-cycl in lysate (caspase-3/7)	time of maximum tumor fluorescence after administration (subcutaneous HeLa tumors; 5 nmol i.v.) [h]	correlation (r) of maximum tumor fluorescence with maximum tumor size change (subcutaneous HeLa tumors; 3×DOX-treated mice, 1 h after probe)	increase in fluorescence signal in DOX-treated tumors compared to saline-treated (subcutaneous HeLa tumors; 4 h after 5 nmol probe, 3×DOX) [fold]	cytotoxicity, effect on cell viability (viable HeLa cells)
CCSSC[C@@H](NC(=O)[C@H](CC(=O)O)NC(=O)[C@@H](NC(=O)[C@H](CCC(=O)O)NC(=O)[C@H](CC(=O)O)NC(C)=O)C(C)C)C(=O)N[C@@H](CCCCNC(=O)CCCCCN1C(=CC=CC=CC2=[N+](CC)c3ccc4c(S(=O)(=O)[O-])cc(S(=O)(=O)O)cc4c3C2(C)C)C(C)(C)c2c1ccc1c(S(=O)(=O)O)cc(S(=O)(=O)O)cc21)C(=O)Nc1ccc2nc(C3=N[C@@H](C(=O)NCCCOc4ccc5nc(C#N)ccc5c4)CS3)sc2c1 [C-SNAF]	high selectivity of the probe toward effector caspases-3 and -7	neither lysosomal cysteine proteases cathepsin B nor legumain could significantly activate	9	92	approximately 10 fold	23	90	approximately 4 fold	more than 90%	1	−0.9	1.6	–
CCSSCC(NC(=O)C(CC(=O)O)NC(=O)C(NC(=O)C(CCC(=O)O)NC(=O)C(CC(=O)O)NC(C)=O)C(C)C)C(=O)NC(CCCCNC(=O)CN1CCN(CC(=O)[O-])CCN(CC(=O)[O-])CCN(CC(=O)[O-])CC1)C(=O)Nc1ccc2nc(C3=NC(C(=O)NCCCOc4ccc5nc(C#N)ccc5c4)CS3)sc2c1.[Gd+3] (stereo not shown) [probe 15] (Ac-DEVDC(SEt)K(DOTA)[X1]-X2; configuration not given here)	–	–	–	–	–	–	–	–	–	–	–	–	no adverse effects on cell viability
